The results in this text go back to US20050037939A1, “Bottlewash additive” (Scimed Life Systems, Inc., priority 2002, published 2005).

The experiment concerns mold on REF-PET bottles. Briefly: Mold Remove Ability Test. Particulars: alkaline bottlewashing environment; conditions not given. As to the method:
1. Mold Remove Ability Test A) Compositions are prepared according to the following general formula: [table] B) Select field returned bottles with heavy mold (black). Select 4 bottles per testing sequence. C) Cut the mold samples from REF-PET bottles using a utility knife. D) Label PET/mold pieces to keep track of the source bottle and the solution in which they are tested. E) Prepare solutions using 2.8% NaOH and 1% of the bottlewashing additive unless otherwise specified. F) Preheat the solutions to 55° C. G) Immerse PET/mold samples in respective bottlewashing compositions and soaked for 15 minutes with stirring at 400 rpm. H) If the mold is removed during testing note the time of removal. I) Remove the samples from solution. If the mold was not removed, rinse the sample in tap water for 10 seconds to see if mold can be removed at this point. J) Grade the samples by a % of mold removed and average the 4 tests as well as the time required for removal (Time Removal Grade). Time Grade is defined as follows: [table] Other Grades may be in between or lower depending on total mold removal

In the case of C6 alkyl diphenylene oxide disulfonate, the “cleaning / mold removal by the surfactant (general statement)” value is reported as “superior cleaning/mold removal characteristics”.
